# Activity calls are given as the source filed them. The calls are words filed in the database; no cut-off is given here.
# What was measured:
# THP-1 [1] = assay: Inhibition of foam cells formation in human THP-1 cells assessed as upregulation of ABCA1 mRNA expression at 2.5 to 15 uM by RT-PCR analysis; assay type: functional, cell-based; conditions: dose 2.5-15 µM
# HepG2 [2] = assay: Induction of reverse cholesterol transport in human HepG2 cells assessed as reduction in PCSK9 protein expression at 2.5 to 15 uM by Western blot analysis; assay type: functional, cell-based; conditions: dose 2.5-15 µM
# HepG2 [3] = assay: Induction of reverse cholesterol transport in human HepG2 cells assessed as reduction in PCSK9 mRNA expression at 2.5 to 15 uM by qRT-PCR analysis; assay type: functional, cell-based; conditions: dose 2.5-15 µM
# THP-1 [4] = assay: Inhibition of ox-LDL uptake in human THP-1 foam cells assessed as downregulation of CD36 expression by measuring reduction in phosphorylated p38 protein expression at 2.5 to 15 uM by Western blot analysis; assay type: functional, cell-based; conditions: dose 2.5-15 µM
# HepG2 [5] = assay: Inhibition of ox-LDL induced lipid accumulation in human HepG2 cells assessed as reduction in total triglyceride level at 2.5 to 15 uM; assay type: functional, cell-based; conditions: dose 2.5-15 µM
# THP-1 [6] = assay: Cytotoxicity against human THP-1 cells assessed as inhibition of cell growth at 0 to 15 uM incubated for 24 hrs by CCK-8 assay; assay type: toxicity, cell-based; conditions: thp-1, 24 h, dose 0-15 µM
# THP-1 [7] = assay: Induction of lipid efflux in human THP-1 cells assessed as upregulation of PPARgamma protein expression at higher concentrations by Western blot analysis; assay type: functional, cell-based
# HepG2 [8] = assay: Downregulation of SREBP2 mRNA expression in human HepG2 cells at 2.5 to 15 uM by qRT-PCR analysis; assay type: functional, cell-based; conditions: dose 2.5-15 µM
# HepG2 [9] = assay: Induction of reverse cholesterol transport in human HepG2 cells assessed as increase in SR-B1 protein expression by Western blot analysis; assay type: functional, cell-based; conditions: dose 2.5-15 µM, DDE = dose-dependent effect
# HepG2 [10] = assay: Reduction in triglyceride level in human HepG2 cells assessed as reduction in ACC protein expression by Western blot analysis; assay type: functional, cell-based; conditions: dose 2.5-15 µM, DDE = dose-dependent effect
# HepG2 [11] = assay: Reduction in triglyceride level in human HepG2 cells assessed as reduction in FAS mRNA expression by qRT-PCR analysis; assay type: functional, cell-based; conditions: dose 2.5-15 µM, DDE = dose-dependent effect
# HepG2 [12] = assay: Induction of reverse cholesterol transport in human HepG2 cells assessed as upregulation of LDLR protein expression by Western blot analysis; assay type: functional, cell-based; conditions: dose 2.5-15 µM, DDE = dose-dependent effect
# THP-1 [13] = assay: Inhibition of foam cells formation in human THP-1 cells assessed as upregulation of SR-B1 protein expression at 2.5 to 15 uM by Western blot analysis; assay type: functional, cell-based; conditions: dose 2.5-15 µM
# THP-1 [14] = assay: Inhibition of foam cells formation in human THP-1 cells assessed as reduction in CD36 protein expression at 2.5 to 15 uM by Western blot analysis; assay type: functional, cell-based; conditions: dose 2.5-15 µM
# THP-1 [15] = assay: Inhibition of ox-LDL induced lipid accumulation in human THP-1 cells assessed as reduction oxidized LDL uptake at 2.5 to 15 uM incubated for 4 hrs by Hoechst 33258 dye based confocal microscopic analysis; assay type: functional, cell-based; conditions: dose 2.5-15 µM
# HepG2 [16] = assay: Reduction in cholesterol biosynthesis in human HepG2 cells assessed as reduction in HMGCR mRNA expression at 2.5 to 15 uM by qRT-PCR analysis; assay type: functional, cell-based; conditions: dose 2.5-15 µM
# HepG2 [17] = assay: Reduction in triglyceride level in human HepG2 cells assessed as reduction in ACC mRNA expression by qRT-PCR analysis; assay type: functional, cell-based; conditions: dose 2.5-15 µM, DDE = dose-dependent effect
# THP-1 [18] = assay: Inhibition of ox-LDL uptake in human THP-1 foam cells assessed as downregulation of CD36 expression by measuring reduction in MAPK mRNA expression at 2.5 to 15 uM by qRT-PCR analysis; assay type: functional, cell-based; conditions: dose 2.5-15 µM
# THP-1 [19] = assay: Inhibition of foam cells formation in human THP-1 cells assessed as upregulation of ABCG1 protein expression at 2.5 to 15 uM by Western blot analysis; assay type: functional, cell-based; conditions: dose 2.5-15 µM
# THP-1 [20] = assay: Inhibition of ox-LDL uptake in human THP-1 foam cells assessed as downregulation of CD36 expression by measuring reduction in total JNK protein expression at 2.5 to 15 uM by Western blot analysis; assay type: functional, cell-based; conditions: dose 2.5-15 µM
# THP-1 [21] = assay: Inhibition of ox-LDL induced lipid accumulation in human THP-1 cells assessed as increase in cholesterol efflux rate incubated for 24 hrs by liquid scintillation counting analysis; assay type: functional, cell-based; conditions: dose 2.5-15 µM, DDE = dose-dependent effect
# HepG2 [22] = assay: Downregulation of SREBP2 protein expression in human HepG2 cells at 2.5 to 15 uM by Western blot analysis; assay type: functional, cell-based; conditions: dose 2.5-15 µM
# HepG2 [23] = assay: Reduction in triglyceride level in human HepG2 cells assessed as reduction in FAS protein expression by Western blot analysis; assay type: functional, cell-based; conditions: dose 2.5-15 µM, DDE = dose-dependent effect
# HepG2 [24] = assay: Downregulation of SREBP1c mRNA expression in human HepG2 cells at 2.5 to 15 uM by qRT-PCR analysis; assay type: functional, cell-based; conditions: dose 2.5-15 µM
# HepG2 [25] = assay: Inhibition of ox-LDL induced lipid accumulation in human HepG2 cells assessed as reduction in total cholesterol level at 2.5 to 15 uM; assay type: functional, cell-based; conditions: dose 2.5-15 µM
# THP-1 [26] = assay: Inhibition of ox-LDL induced lipid accumulation in human THP-1 cells assessed as reduction in total triglyceride level at 2.5 to 15 uM; assay type: functional, cell-based; conditions: dose 2.5-15 µM
# THP-1 [27] = assay: Inhibition of ox-LDL uptake in human THP-1 foam cells assessed as downregulation of CD36 expression by measuring reduction in pJNK protein expression at 2.5 to 15 uM by Western blot analysis; assay type: functional, cell-based; conditions: dose 2.5-15 µM
# HepG2 [28] = assay: Induction of reverse cholesterol transport in human HepG2 cells assessed as increase in SR-B1 mRNA expression by qRT-PCR analysis; assay type: functional, cell-based; conditions: dose 2.5-15 µM, DDE = dose-dependent effect
# THP-1 [29] = assay: Inhibition of ox-LDL induced lipid accumulation in human THP-1 cells assessed as reduction in total cholesterol level at 2.5 to 15 uM; assay type: functional, cell-based; conditions: dose 2.5-15 µM
# THP-1 [30] = assay: Induction of lipid efflux in human THP-1 cells assessed as upregulation of PPARgamma mRNA expression by qRT-PCR analysis; assay type: functional, cell-based; conditions: dose 2.5-15 µM, DDE = dose-dependent effect
# THP-1 [31] = assay: Inhibition of ox-LDL uptake in human THP-1 foam cells assessed as downregulation of CD36 expression by measuring reduction in total p38 protein expression at 2.5 to 15 uM by Western blot analysis; assay type: functional, cell-based; conditions: dose 2.5-15 µM
# THP-1 [32] = assay: Inhibition of foam cells formation in human THP-1 cells assessed as reduction in CD36 mRNA expression at 2.5 to 15 uM by RT-PCR analysis; assay type: functional, cell-based; conditions: dose 2.5-15 µM
# THP-1 [33] = assay: Inhibition of ox-LDL uptake in human THP-1 foam cells assessed as downregulation of CD36 expression by measuring reduction in pERK protein expression at 2.5 to 15 uM by Western blot analysis; assay type: functional, cell-based; conditions: dose 2.5-15 µM
# THP-1 [34] = assay: Induction of lipid efflux in human THP-1 cells assessed as upregulation of LXRalpha mRNA expression by qRT-PCR analysis; assay type: functional, cell-based; conditions: dose 2.5-15 µM, DDE = dose-dependent effect
# THP-1 [35] = assay: Inhibition of ox-LDL uptake in human THP-1 foam cells assessed as downregulation of CD36 expression by measuring reduction in total ERK protein expression at 2.5 to 15 uM by Western blot analysis; assay type: functional, cell-based; conditions: dose 2.5-15 µM
# HepG2 [36] = assay: Downregulation of SREBP1c protein expression in human HepG2 cells at 2.5 to 15 uM by Western blot analysis; assay type: functional, cell-based; conditions: dose 2.5-15 µM
# THP-1 [37] = assay: Inhibition of foam cells formation in human THP-1 cells assessed as upregulation of ABCA1 protein expression at 2.5 to 15 uM by Western blot analysis; assay type: functional, cell-based; conditions: dose 2.5-15 µM
# THP-1 [38] = assay: Induction of lipid efflux in human THP-1 cells assessed as upregulation of LXRalpha protein expression at higher concentrations by Western blot analysis; assay type: functional, cell-based
# THP-1 [39] = assay: Inhibition of ox-LDL induced lipid accumulation in human THP-1 cells assessed as reduction in intracellular lipid droplets at 2.5 to 15 uM by oil red O staining based inverted microscopic analysis; assay type: functional, cell-based; conditions: dose 2.5-15 µM
# HepG2 [40] = assay: Cytotoxicity against human HepG2 cells assessed as inhibition of cell growth at 0 to 15 uM incubated for 24 hrs by CCK-8 assay; assay type: toxicity, cell-based; conditions: hepg2, 24 h, dose 0-15 µM
# THP-1 [41] = assay: Inhibition of foam cells formation in human THP-1 cells assessed as upregulation of SR-B1 mRNA expression at 2.5 to 15 uM by RT-PCR analysis; assay type: functional, cell-based; conditions: dose 2.5-15 µM
compound,measurement,setting,value
CC(C)=CCc1ccc(O)c2c1[C@H](c1cc(C)cc3c1O[C@H](C(C)(C)O)CO3)NC2=O,inhibition,THP-1 [1],Active
same,Activity,HepG2 [2],Active
same,Activity,HepG2 [3],Active
same,inhibition,THP-1 [4],Active
same,inhibition,HepG2 [5],Active
same,Activity,THP-1 [6],Non-Toxic
same,Activity,THP-1 [7],Active
same,Activity,HepG2 [8],Active
same,Activity,HepG2 [9],Dde
same,Activity,HepG2 [10],Dde
same,Activity,HepG2 [11],Dde
same,Activity,HepG2 [12],Dde
same,inhibition,THP-1 [13],Active
same,inhibition,THP-1 [14],Active
same,inhibition,THP-1 [15],Active
same,Activity,HepG2 [16],Active
same,Activity,HepG2 [17],Dde
same,inhibition,THP-1 [18],Active
same,inhibition,THP-1 [19],Active
same,inhibition,THP-1 [20],Active
same,inhibition,THP-1 [21],Dde
same,Activity,HepG2 [22],Active
same,Activity,HepG2 [23],Dde
same,Activity,HepG2 [24],Active
same,inhibition,HepG2 [25],Active
same,inhibition,THP-1 [26],Active
same,inhibition,THP-1 [27],Active
same,Activity,HepG2 [28],Dde
same,inhibition,THP-1 [29],Active
same,Activity,THP-1 [30],Dde
same,inhibition,THP-1 [31],Active
same,inhibition,THP-1 [32],Active
same,inhibition,THP-1 [33],Active
same,Activity,THP-1 [34],Dde
same,inhibition,THP-1 [35],Active
same,Activity,HepG2 [36],Active
same,inhibition,THP-1 [37],Active
same,Activity,THP-1 [38],Active
same,inhibition,THP-1 [39],Active
same,Activity,HepG2 [40],Non-Toxic
same,inhibition,THP-1 [41],Active

# Source: ChEMBL document CHEMBL5215001, “Diaporisoindole B Reduces Lipid Accumulation in THP-1 Macrophage Cells via MAPKs and PPARγ-LXRα Pathways and Promotes the Reverse Cholesterol Transport by Upregulating SR-B1 and LDLR in HepG2 Cells” (J Nat Prod, 2022)
